Source: ChEMBL document CHEMBL6109078, “Pyrylium derivatives as outer membrane permeabilizers against MDR gram-negative bacteria via multi-target mode of action” (Eur J Med Chem, 2025)
In brackets after ≈: the same amount, converted by molar mass.

Columns and labels:
Assay type in all cases: functional
Escherichia coli [1] = experiment: Antibacterial activity against Escherichia coli ATCC 25922 assessed as inhibition of bacterial growth by CLSI protocol based method
Klebsiella pneumoniae [2] = experiment: Antibacterial activity against Klebsiella pneumoniae ATCC 700603 assessed as inhibition of bacterial growth by CLSI protocol based method
Escherichia coli [3] = experiment: Antibacterial activity against ESBL positive Escherichia coli ATCC 35218 assessed as inhibition of bacterial growth by CLSI protocol based method
Pseudomonas aeruginosa [4] = experiment: Antibacterial activity Pseudomonas aeruginosa PAO1 assessed as inhibition of bacterial growth by CLSI protocol based method
Klebsiella pneumoniae [5] = experiment: Antibacterial activity against Klebsiella pneumoniae BAA ATCC 1706 assessed as inhibition of bacterial growth by CLSI protocol based method
Pseudomonas aeruginosa [6] = experiment: Antibacterial activity Pseudomonas aeruginosa ATCC 27853 assessed as inhibition of bacterial growth by CLSI protocol based method
Acinetobacter baumannii [7] = experiment: Antibacterial activity against Acinetobacter baumannii ATCC 19606 assessed as inhibition of bacterial growth by CLSI protocol based method
Acinetobacter baumannii [8] = experiment: Antibacterial activity against multi-drug resistant Acinetobacter baumannii clinical isolate 5 assessed as inhibition of bacterial growth by CLSI protocol based method
Acinetobacter baumannii [9] = experiment: Antibacterial activity against multi-drug resistant Acinetobacter baumannii clinical isolate 43 assessed as inhibition of bacterial growth by CLSI protocol based method
Acinetobacter baumannii [10] = experiment: Antibacterial activity against multi-drug resistant Acinetobacter baumannii clinical isolate 10 assessed as inhibition of bacterial growth by CLSI protocol based method
Acinetobacter baumannii [11] = experiment: Antibacterial activity against multi-drug resistant Acinetobacter baumannii clinical isolate 51 assessed as inhibition of bacterial growth by CLSI protocol based method
Acinetobacter baumannii [12] = experiment: Antibacterial activity against multi-drug resistant Acinetobacter baumannii clinical isolate 4 assessed as inhibition of bacterial growth by CLSI protocol based method
Acinetobacter baumannii [13] = experiment: Antibacterial activity against multi-drug resistant Acinetobacter baumannii clinical isolate 2 assessed as inhibition of bacterial growth by CLSI protocol based method
Acinetobacter baumannii [14] = experiment: Antibacterial activity against multi-drug resistant Acinetobacter baumannii clinical isolate 14 assessed as inhibition of bacterial growth by CLSI protocol based method
Acinetobacter baumannii [15] = experiment: Antibacterial activity against multi-drug resistant Acinetobacter baumannii clinical isolate 1 assessed as inhibition of bacterial growth by CLSI protocol based method
Escherichia coli [16] = experiment: Antibacterial activity against Escherichia coli CG-4 expressing MCR-1 and NDM-1 assessed as inhibition of bacterial growth by CLSI protocol based method
Escherichia coli [17] = experiment: Antibacterial activity against multi-drug resistant Escherichia coli clinical isolate 1 assessed as inhibition of bacterial growth by CLSI protocol based method

| Structure (SMILES) | MIC (Escherichia coli [1]) [µg/mL] | MIC (Klebsiella pneumoniae [2]) [µg/mL] | MIC (Escherichia coli [3]) [µg/mL] | MIC (Pseudomonas aeruginosa [4]) [µg/mL] | MIC (Klebsiella pneumoniae [5]) [µg/mL] | MIC (Pseudomonas aeruginosa [6]) [µg/mL] | MIC (Acinetobacter baumannii [7]) [µg/mL] | MIC (Acinetobacter baumannii [8]) [µg/mL] | MIC (Acinetobacter baumannii [9]) [µg/mL] | MIC (Acinetobacter baumannii [10]) [µg/mL] | MIC (Acinetobacter baumannii [11]) [µg/mL] | MIC (Acinetobacter baumannii [12]) [µg/mL] | MIC (Acinetobacter baumannii [13]) [µg/mL] | MIC (Acinetobacter baumannii [14]) [µg/mL] | MIC (Acinetobacter baumannii [15]) [µg/mL] | MIC (Escherichia coli [16]) [µg/mL] | MIC (Escherichia coli [17]) [µg/mL] |
| --- | --- | --- | --- | --- | --- | --- | --- | --- | --- | --- | --- | --- | --- | --- | --- | --- | --- |
| CC(C)(C)c1cc(/C=C/c2ccc(N3CCOCC3)cc2)cc(C(C)(C)C)[o+]1.O=S(=O)([O-])C(F)(F)F | > 100 | > 100 | > 100 | > 100 | > 100 | > 100 | > 100 |  |  |  |  |  |  |  |  |  |  |
| CCCCN(CCCC)c1ccc(/C=C/c2cc(C(C)(C)C)[o+]c(C(C)(C)C)c2)cc1.O=S(=O)([O-])C(F)(F)F | > 100 | > 100 | > 100 | > 100 | > 100 | > 100 | > 100 |  |  |  |  |  |  |  |  |  |  |
| CNC(C)[C@@H]1CC[C@@H](N)[C@@H](O[C@H]2[C@H](O)[C@@H](O[C@H]3OC[C@](C)(O)[C@H](NC)[C@H]3O)[C@H](N)C[C@@H]2N)O1.CN[C@@H]1[C@@H](O)[C@@H](O[C@@H]2[C@@H](O)[C@H](O[C@H]3O[C@H](C(C)N)CC[C@H]3N)[C@@H](N)C[C@H]2N)OC[C@]1(C)O.CN[C@@H]1[C@@H](O)[C@@H](O[C@@H]2[C@@H](O)[C@H](O[C@H]3O[C@H](CN)CC[C@H]3N)[C@@H](N)C[C@H]2N)OC[C@]1(C)O (stereo not given in full) |  | 6.25 |  | 0.2 | 1.56 | 0.78 | 0.78 | > 100 | > 100 | > 100 | > 100 | > 100 | > 100 | > 100 | > 100 |  |  |
| CCN(CCCl)c1ccc(/C=C/c2cc(C(C)(C)C)[o+]c(C(C)(C)C)c2)cc1.O=S(=O)([O-])C(F)(F)F | > 100 | > 100 | > 100 | > 100 | > 100 | > 100 | > 100 |  |  |  |  |  |  |  |  |  |  |
| NCC[C@H](O)C(=O)N[C@@H]1C[C@H](N)[C@@H](O[C@H]2O[C@H](CN)[C@@H](O)[C@H](O)[C@H]2O)[C@H](O)[C@H]1O[C@H]1O[C@H](CO)[C@@H](O)[C@H](N)[C@H]1O [AMIKACIN] | 6.25 (≈ 10.7 µM) | 0.78 (≈ 1.33 µM) | 1.56 (≈ 2.66 µM) | 0.2 (≈ 0.342 µM) | 50 (≈ 85.4 µM) | 0.78 (≈ 1.33 µM) | 0.78 (≈ 1.33 µM) | > 100 | > 100 | > 100 | > 100 | > 100 | > 100 | 50 (≈ 85.4 µM) | > 100 | 100 (≈ 171 µM) | > 100 |
| CC(C)(C)c1cc(NC(=O)/C=C/C=C/c2ccccc2Cl)cc(C(C)(C)C)c1 | > 100 | > 100 | > 100 | > 100 | > 100 | > 100 | > 100 |  |  |  |  |  |  |  |  |  |  |
| CC(C)(C)c1cc(/C=C/c2ccc(N(CCCl)CCCl)cc2)cc(C(C)(C)C)[o+]1.O=S(=O)([O-])C(F)(F)F | > 100 | > 100 | > 100 | > 100 | > 100 | > 100 | > 100 |  |  |  |  |  |  |  |  |  |  |
| CN(C)c1ccc(/C=C/C=C/c2cc(C(C)(C)C)[o+]c(C(C)(C)C)c2)cc1.O=S(=O)([O-])C(F)(F)F | > 100 | > 100 | > 100 | > 100 | > 100 | > 100 | > 100 |  |  |  |  |  |  |  |  |  |  |
| CC(C)Oc1ccc(/C=C/c2cc(C(C)(C)C)[o+]c(C(C)(C)C)c2)cc1.O=S(=O)([O-])C(F)(F)F | > 100 | > 100 | > 100 | > 100 | > 100 | > 100 | > 100 |  |  |  |  |  |  |  |  |  |  |
| CN(CCCl)c1ccc(/C=C/c2cc(C(C)(C)C)[o+]c(C(C)(C)C)c2)cc1.O=S(=O)([O-])C(F)(F)F | > 100 | > 100 | > 100 | > 100 | > 100 | > 100 | > 100 |  |  |  |  |  |  |  |  |  |  |
| CC(C)(C)c1cc(/C=C/c2ccc(N3CCCCC3)cc2)cc(C(C)(C)C)[o+]1.O=S(=O)([O-])C(F)(F)F | > 100 | > 100 | > 100 | > 100 | > 100 | > 100 | 50 |  |  |  |  |  |  |  |  |  |  |
| CCCN(CCC)c1ccc(/C=C/c2cc(C(C)(C)C)[o+]c(C(C)(C)C)c2)cc1.O=S(=O)([O-])C(F)(F)F | > 100 | > 100 | > 100 | > 100 | > 100 | > 100 | > 100 |  |  |  |  |  |  |  |  |  |  |
| CCn1c2ccccc2c2cc(/C=C/c3cc(C(C)(C)C)[o+]c(C(C)(C)C)c3)ccc21.O=S(=O)([O-])C(F)(F)F | > 100 | > 100 | > 100 | > 100 | > 100 | > 100 | > 100 |  |  |  |  |  |  |  |  |  |  |
| CCOc1ccc(/C=C/c2cc(C(C)(C)C)[o+]c(C(C)(C)C)c2)cc1OC.O=S(=O)([O-])C(F)(F)F | > 100 | > 100 | > 100 | > 100 | > 100 | > 100 | > 100 |  |  |  |  |  |  |  |  |  |  |
| CC(C)(C)c1cc(NC(=O)/C=C/c2cc3ccccc3o2)cc(C(C)(C)C)c1 | > 100 | > 100 | > 100 | > 100 | > 100 | > 100 | > 100 |  |  |  |  |  |  |  |  |  |  |
| CC(C)(C)c1cc(/C=C/c2ccc3c(c2)CCO3)cc(C(C)(C)C)[o+]1.O=S(=O)([O-])C(F)(F)F | > 100 | > 100 | > 100 | > 100 | > 100 | > 100 | > 100 |  |  |  |  |  |  |  |  |  |  |
| CC(C)(C)c1cc(NC(=O)/C=C/C=C/c2ccccc2)cc(C(C)(C)C)c1 | > 100 | > 100 | > 100 | > 100 | > 100 | > 100 | > 100 |  |  |  |  |  |  |  |  |  |  |
| Cn1c(=O)n(C)c2cc(/C=C/c3cc(C(C)(C)C)[o+]c(C(C)(C)C)c3)ccc21.O=S(=O)([O-])C(F)(F)F | > 100 | > 100 | > 100 | > 100 | > 100 | > 100 | > 100 |  |  |  |  |  |  |  |  |  |  |
| CC(C)(C)c1cc(/C=C/c2ccc(N(c3ccccc3)c3ccccc3)cc2)cc(C(C)(C)C)[o+]1.O=S(=O)([O-])C(F)(F)F | > 100 | > 100 | > 100 | > 100 | > 100 | > 100 | > 100 |  |  |  |  |  |  |  |  |  |  |
| CC(=O)OCCN(CCOC(C)=O)c1ccc(/C=C/c2cc(C(C)(C)C)[o+]c(C(C)(C)C)c2)cc1.O=S(=O)([O-])C(F)(F)F | > 100 | > 100 | > 100 | > 100 | > 100 | > 100 | > 100 |  |  |  |  |  |  |  |  |  |  |
| CN(CCC#N)c1ccc(/C=C/c2cc(C(C)(C)C)[o+]c(C(C)(C)C)c2)cc1.O=S(=O)([O-])C(F)(F)F | > 100 | > 100 | > 100 | > 100 | > 100 | > 100 | > 100 |  |  |  |  |  |  |  |  |  |  |
| COc1ccc(/C=C/c2cc(C(C)(C)C)[o+]c(C(C)(C)C)c2)c(Cl)c1.O=S(=O)([O-])C(F)(F)F | > 100 | > 100 | > 100 | > 100 | > 100 | > 100 | > 100 |  |  |  |  |  |  |  |  |  |  |
